Experimental data as given in ChEMBL document CHEMBL1201862, “PubChem BioAssay data set” (2004).
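A five-concentration, 48-hour dose response in 96-well plates underlies each endpoint, interpolated linearly between surrounding concentrations. GI50: concentration for 50% inhibition of growth.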 Active and inactive are the calls of the source. Rule as the data show it: active = GI50 up to about 1.1 µM and inactive = higher.

Legend:
Assay in all cases: NCI-60 cell line screen, 48 h
SF-268 = tested on: SF-268
HCT-116 = tested on: HCT-116
NCI-H522 = tested on: NCI-H522
UACC-62 = tested on: UACC-62
SR = tested on: SR
NCI-H226 = tested on: NCI-H226
SNB-19 = tested on: SNB-19
SN12C = tested on: SN12C
COLO 205 = tested on: COLO 205
TK-10 = tested on: TK-10
OVCAR-3 = tested on: OVCAR-3
HL-60 = tested on: HL-60
PC-3 = tested on: PC-3
Malme-3M = tested on: Malme-3M
NCI/ADR-RES = tested on: NCI/ADR-RES
RPMI-8226 = tested on: RPMI-8226
OVCAR-8 = tested on: OVCAR-8
LOX IMVI = tested on: LOX IMVI
IGROV-1 = tested on: IGROV-1
T47D = tested on: T47D
HOP-92 = tested on: HOP-92
KM12 = tested on: KM12
UO-31 = tested on: UO-31
MDA-MB-435 = tested on: MDA-MB-435
MDA-N = tested on: MDA-N
NCI-H23 = tested on: NCI-H23
CAKI-1 = tested on: CAKI-1
HCT-15 = tested on: HCT-15
EKVX = tested on: EKVX
HT-29 = tested on: HT-29
UACC-257 = tested on: UACC-257
MCF7 = tested on: MCF7
HOP-62 = tested on: HOP-62
SW-620 = tested on: SW-620
OVCAR-4 = tested on: OVCAR-4
HCC 2998 = tested on: HCC 2998
DU-145 = tested on: DU-145
SNB-75 = tested on: SNB-75
OVCAR-5 = tested on: OVCAR-5
SK-MEL-28 = tested on: SK-MEL-28
786-0 = tested on: 786-0
MOLT-4 = tested on: MOLT-4
SK-MEL-5 = tested on: SK-MEL-5
NCI-H460 = tested on: NCI-H460
A498 = tested on: A498
SK-MEL-2 = tested on: SK-MEL-2
SK-OV-3 = tested on: SK-OV-3
MDA-MB-231 = tested on: MDA-MB-231
BT-549 = tested on: BT-549
SF-539 = tested on: SF-539
U-251 = tested on: U-251
ACHN = tested on: ACHN
CCRF-CEM = tested on: CCRF-CEM
Hs-578T = tested on: Hs-578T
K562 = tested on: K562
M14 = tested on: M14
SF-295 = tested on: SF-295
A549 = tested on: A549
RXF 393 = tested on: RXF 393

Measured: GI50

Oc1c(C2=N[C@H]3CCCC[C@@H]3N2)ccc2ccccc12
> 100 µM: HCT-15
inactive: SF-268 > 100 µM | HCT-116 > 100 µM | NCI-H522 > 100 µM | UACC-62 > 100 µM | SR > 100 µM | NCI-H226 > 100 µM | SNB-19 > 40.8 µM | SN12C > 100 µM | COLO 205 > 100 µM | TK-10 > 100 µM | OVCAR-3 > 100 µM | HL-60 > 100 µM | PC-3 > 100 µM | Malme-3M > 100 µM | NCI/ADR-RES > 47.6 µM | RPMI-8226 > 100 µM | OVCAR-8 > 100 µM | LOX IMVI > 100 µM | IGROV-1 > 82 µM | T47D > 100 µM | HOP-92 > 100 µM | KM12 > 100 µM | UO-31 > 100 µM | MDA-MB-435 > 100 µM | MDA-N > 100 µM | NCI-H23 > 100 µM | CAKI-1 > 100 µM | EKVX > 68.2 µM | HT-29 > 100 µM | UACC-257 > 100 µM | MCF7 > 100 µM | HOP-62 > 44.7 µM | SW-620 > 100 µM | OVCAR-4 > 100 µM | HCC 2998 > 100 µM | DU-145 > 100 µM | SNB-75 > 69.2 µM | OVCAR-5 > 100 µM | SK-MEL-28 > 100 µM | 786-0 > 100 µM | MOLT-4 > 100 µM | SK-MEL-5 > 100 µM | NCI-H460 > 100 µM | A498 > 100 µM | SK-MEL-2 > 100 µM | SK-OV-3 > 100 µM | MDA-MB-231 > 100 µM | BT-549 > 100 µM | SF-539 > 59.6 µM | U-251 > 100 µM | ACHN > 100 µM | CCRF-CEM > 100 µM | Hs-578T > 100 µM | K562 > 100 µM | M14 > 100 µM

CCCCC1C(=O)N(c2ccc(S(=O)(=O)Nc3ccccn3)cc2)N(c2ccc(O)c(C(=O)O)c2)C1=O (stereo unspecified)
inactive: SF-268 > 100 µM | HCT-116 > 100 µM | NCI-H522 > 100 µM | UACC-62 > 100 µM | SR > 100 µM | NCI-H226 > 100 µM | SNB-19 > 100 µM | SN12C > 100 µM | COLO 205 > 100 µM | SF-295 > 100 µM | OVCAR-3 > 100 µM | HL-60 > 100 µM | PC-3 > 100 µM | A549 > 100 µM | Malme-3M > 100 µM | NCI/ADR-RES > 100 µM | RPMI-8226 > 100 µM | OVCAR-8 > 100 µM | LOX IMVI > 100 µM | IGROV-1 > 100 µM | T47D > 100 µM | HOP-92 > 100 µM | KM12 > 100 µM | UO-31 > 100 µM | MDA-MB-435 > 100 µM | MDA-N > 100 µM | NCI-H23 > 100 µM | CAKI-1 > 100 µM | EKVX > 100 µM | HT-29 > 100 µM | UACC-257 > 100 µM | MCF7 > 100 µM | RXF 393 > 100 µM | SW-620 > 100 µM | OVCAR-4 > 100 µM | HCC 2998 > 100 µM | DU-145 > 100 µM | SNB-75 > 100 µM | OVCAR-5 > 100 µM | SK-MEL-28 > 100 µM | 786-0 > 100 µM | MOLT-4 > 100 µM | SK-MEL-5 > 100 µM | NCI-H460 > 100 µM | A498 > 100 µM | SK-MEL-2 > 100 µM | SK-OV-3 > 100 µM | MDA-MB-231 > 100 µM | BT-549 > 100 µM | SF-539 > 100 µM | U-251 > 100 µM | ACHN > 100 µM | CCRF-CEM > 100 µM | Hs-578T > 100 µM | K562 > 100 µM | M14 > 100 µM
> 100 µM: HCT-15

O=C1Nc2ccc([N+](=O)[O-])cc2/C1=N/NC(=S)Nc1ccccc1
3.03 µM: HCT-15
inactive: HCT-116 4.05 µM | UACC-62 11 µM | SR 5.26 µM | NCI-H226 18.5 µM | SNB-19 5.35 µM | SN12C 5.9 µM | COLO 205 11.7 µM | SF-295 4.34 µM | TK-10 6.11 µM | OVCAR-3 10 µM | HL-60 5.21 µM | PC-3 5.5 µM | A549 5.05 µM | NCI/ADR-RES 2.47 µM | RPMI-8226 15.5 µM | OVCAR-8 5.16 µM | LOX IMVI 9.46 µM | IGROV-1 1.41 µM | T47D 4.71 µM | HOP-92 2.92 µM | KM12 8.41 µM | UO-31 4.79 µM | MDA-MB-435 10.1 µM | MDA-N 6.35 µM | NCI-H23 9.33 µM | CAKI-1 3.53 µM | EKVX 1.21 µM | HT-29 5.37 µM | UACC-257 12.7 µM | MCF7 4.41 µM | RXF 393 11.6 µM | HOP-62 8.57 µM | SW-620 8.99 µM | OVCAR-4 7.23 µM | HCC 2998 3.6 µM | DU-145 11.8 µM | SNB-75 7.57 µM | OVCAR-5 12.2 µM | SK-MEL-28 16.5 µM | 786-0 5.43 µM | MOLT-4 5.98 µM | SK-MEL-5 2.9 µM | NCI-H460 3.61 µM | A498 3.56 µM | SK-MEL-2 11.9 µM | SK-OV-3 14 µM | MDA-MB-231 12.3 µM | BT-549 3.88 µM | SF-539 12 µM | U-251 4.93 µM | ACHN 3.23 µM | CCRF-CEM 2.16 µM | Hs-578T 35.7 µM | K562 4.92 µM | M14 6.01 µM

O=C(c1cccs1)N(Cc1cccnc1)C(=S)N(Cc1cccnc1)C(=O)c1cccs1
> 100 µM: HCT-15
inactive: SF-268 35.6 µM | HCT-116 45.8 µM | NCI-H522 36.5 µM | UACC-62 60.7 µM | SR 7.82 µM | NCI-H226 > 100 µM | SNB-19 35.5 µM | SN12C 32.6 µM | COLO 205 > 100 µM | SF-295 32.2 µM | TK-10 34 µM | OVCAR-3 53.7 µM | HL-60 > 100 µM | PC-3 41.8 µM | A549 > 100 µM | Malme-3M > 100 µM | NCI/ADR-RES > 100 µM | OVCAR-8 50.4 µM | LOX IMVI 5.5 µM | T47D > 100 µM | HOP-92 > 100 µM | KM12 24.4 µM | UO-31 > 100 µM | MDA-MB-435 > 100 µM | MDA-N 33.4 µM | NCI-H23 > 100 µM | CAKI-1 > 100 µM | EKVX 44.1 µM | HT-29 > 100 µM | UACC-257 > 100 µM | MCF7 4.85 µM | RXF 393 > 100 µM | HOP-62 35.6 µM | SW-620 > 100 µM | OVCAR-4 > 100 µM | HCC 2998 > 100 µM | DU-145 > 100 µM | SNB-75 37.8 µM | OVCAR-5 > 100 µM | SK-MEL-28 > 100 µM | 786-0 3.56 µM | MOLT-4 > 100 µM | SK-MEL-5 > 100 µM | NCI-H460 > 100 µM | A498 32.3 µM | SK-MEL-2 26.2 µM | SK-OV-3 37.8 µM | MDA-MB-231 > 100 µM | BT-549 > 100 µM | SF-539 29.9 µM | U-251 32.7 µM | ACHN > 100 µM | CCRF-CEM > 100 µM | Hs-578T 53.2 µM | K562 26.4 µM | M14 91.2 µM
